# Test results as given in ChEMBL document CHEMBL1201862, “PubChem BioAssay data set” (2004).
#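 Protocol summary: plate cells (96-well), add compound at 5 concentrations, incubate 48 h, interpolate endpoints linearly. GI50 is the concentration that inhibits growth by half.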 The source made the active and inactive calls. No stated cut-off is given here; in the data, active = GI50 up to about 1.1 µM and inactive = higher.
# Assays:
# Assay in all cases: growth of human tumour cells (NCI), 48 h
# 786-0 = tested on: 786-0
# A549 = tested on: A549
# ACHN = tested on: ACHN
# CCRF-CEM = tested on: CCRF-CEM
# COLO 205 = tested on: COLO 205
# DLD-1 = tested on: DLD-1
# DMS-273 = tested on: DMS-273
# EKVX = tested on: EKVX
# HCC 2998 = tested on: HCC 2998
# HCT-116 = tested on: HCT-116
# HCT-15 = tested on: HCT-15
# HL-60 = tested on: HL-60
# HOP-62 = tested on: HOP-62
# HT-29 = tested on: HT-29
# IGROV-1 = tested on: IGROV-1
# K562 = tested on: K562
# KM-20L2 = tested on: KM-20L2
# KM12 = tested on: KM12
# LOX IMVI = tested on: LOX IMVI
# LXFL 529 = tested on: LXFL 529
# M14 = tested on: M14
# M19-MEL = tested on: M19-MEL
# MOLT-4 = tested on: MOLT-4
# Malme-3M = tested on: Malme-3M
# NCI-H226 = tested on: NCI-H226
# NCI-H23 = tested on: NCI-H23
# NCI-H460 = tested on: NCI-H460
# NCI-H522 = tested on: NCI-H522
# OVCAR-3 = tested on: OVCAR-3
# OVCAR-4 = tested on: OVCAR-4
# OVCAR-8 = tested on: OVCAR-8
# RXF 393 = tested on: RXF 393
# SF-268 = tested on: SF-268
# SF-295 = tested on: SF-295
# SF-539 = tested on: SF-539
# SK-MEL-28 = tested on: SK-MEL-28
# SK-MEL-2 = tested on: SK-MEL-2
# SK-MEL-5 = tested on: SK-MEL-5
# SK-OV-3 = tested on: SK-OV-3
# SN12C = tested on: SN12C
# SNB-19 = tested on: SNB-19
# SNB-75 = tested on: SNB-75
# SNB-78 = tested on: SNB-78
# SR = tested on: SR
# SW-620 = tested on: SW-620
# TK-10 = tested on: TK-10
# U-251 = tested on: U-251
# UACC-257 = tested on: UACC-257
# UACC-62 = tested on: UACC-62
# UO-31 = tested on: UO-31
# XF498 = tested on: XF498
smiles,measurement,setting,value
Cc1ccc(Cn2c(C)nc3c2C(=O)c2ccccc2C3=O)cc1,GI50,786-0,2.18 µM (inactive)
same,GI50,A549,4.63 µM (inactive)
same,GI50,ACHN,6.22 µM (inactive)
same,GI50,CCRF-CEM,1.98 µM (inactive)
same,GI50,COLO 205,15.8 µM (inactive)
same,GI50,DLD-1,1.22 µM (inactive)
same,GI50,DMS-273,1.07 µM (active)
same,GI50,EKVX,18.2 µM (inactive)
same,GI50,HCC 2998,17.6 µM (inactive)
same,GI50,HCT-116,755 nM (active)
same,GI50,HCT-15,619 nM
same,GI50,HL-60,1.91 µM (inactive)
same,GI50,HOP-62,14 µM (inactive)
same,GI50,HT-29,1.27 µM (inactive)
same,GI50,IGROV-1,5.45 µM (inactive)
same,GI50,K562,834 nM (active)
same,GI50,KM-20L2,5.21 µM (inactive)
same,GI50,KM12,4.56 µM (inactive)
same,GI50,LOX IMVI,597 nM (active)
same,GI50,LXFL 529,1.72 µM (inactive)
same,GI50,M14,27.7 µM (inactive)
same,GI50,M19-MEL,7.05 µM (inactive)
same,GI50,MOLT-4,640 nM (active)
same,GI50,Malme-3M,10.9 µM (inactive)
same,GI50,NCI-H226,6.9 µM (inactive)
same,GI50,NCI-H23,5.21 µM (inactive)
same,GI50,NCI-H460,387 nM (active)
same,GI50,NCI-H522,3.14 µM (inactive)
same,GI50,OVCAR-3,10.6 µM (inactive)
same,GI50,OVCAR-4,13.3 µM (inactive)
same,GI50,OVCAR-8,3.05 µM (inactive)
same,GI50,RXF 393,11.4 µM (inactive)
same,GI50,SF-268,3.43 µM (inactive)
same,GI50,SF-295,7.66 µM (inactive)
same,GI50,SF-539,1.32 µM (inactive)
same,GI50,SK-MEL-28,23.5 µM (inactive)
same,GI50,SK-MEL-2,15.3 µM (inactive)
same,GI50,SK-MEL-5,4.52 µM (inactive)
same,GI50,SK-OV-3,13.8 µM (inactive)
same,GI50,SN12C,6.18 µM (inactive)
same,GI50,SNB-19,11.6 µM (inactive)
same,GI50,SNB-75,13.9 µM (inactive)
same,GI50,SNB-78,20.3 µM (inactive)
same,GI50,SR,331 nM (active)
same,GI50,SW-620,3.33 µM (inactive)
same,GI50,TK-10,13 µM (inactive)
same,GI50,U-251,1.88 µM (inactive)
same,GI50,UACC-257,11.7 µM (inactive)
same,GI50,UACC-62,1.12 µM (inactive)
same,GI50,UO-31,6.32 µM (inactive)
same,GI50,XF498,15.1 µM (inactive)
